Test results reported in patent US10906910B2, “Substituted bicyclic pyrimidine compounds with tubulin and multiple receptor inhibition” (Duquesne University of the Holy Spirit, priority 2014, dated 2021).

Experiments:
SN12C = experiment: NCI 60 panel, Renal Cancer SN12C; type: cell-based; settings: Homo sapiens, read-out: Tumor cell inhibitory activity (NCI) GI50
M14 = experiment: NCI 60 panel, Melanoma M14; type: cell-based; settings: Homo sapiens, read-out: Tumor cell inhibitory activity (NCI) GI50
A498 = experiment: NCI 60 panel, Renal Cancer A498; type: cell-based; settings: Homo sapiens, read-out: Tumor cell inhibitory activity (NCI) GI50
bovine brain tubulin = experiment: inhibition of tubulin assembly; type: biochemical
NCI-H226 = experiment: NCI 60 panel, NSCLC NCI-H226; type: cell-based; settings: Homo sapiens, read-out: Tumor cell inhibitory activity (NCI) GI50
UACC-62 = experiment: NCI 60 panel, Melanoma UACC-62; type: cell-based; settings: Homo sapiens, read-out: Tumor cell inhibitory activity (NCI) GI50
MDA-MB-435 = experiment: NCI 60 panel, Melanoma MDA-MB-435; type: cell-based; settings: Homo sapiens, read-out: Tumor cell inhibitory activity (NCI) GI50
IGROVI = experiment: NCI 60 panel, Ovarian cancer IGROVI; type: cell-based; settings: read-out: Tumor cell inhibitory activity (NCI) GI50
PC-3 = experiment: NCI 60 panel, Prostate Cancer PC-3; type: cell-based; settings: Homo sapiens, read-out: Tumor cell inhibitory activity (NCI) GI50
MOLT-4 = experiment: NCI 60 panel, Leukemia MOLT-4; type: cell-based; settings: Homo sapiens, read-out: Tumor cell inhibitory activity (NCI) GI50
UACC-257 = experiment: NCI 60 panel, Melanoma UACC-257; type: cell-based; settings: Homo sapiens, read-out: Tumor cell inhibitory activity (NCI) GI50
HT29 = experiment: NCI 60 panel, Colon Cancer HT29; type: cell-based; settings: Homo sapiens, HT-29, read-out: Tumor cell inhibitory activity (NCI) GI50
SK-MEL-28 = experiment: NCI 60 panel, Melanoma SK-MEL-28; type: cell-based; settings: Homo sapiens, read-out: Tumor cell inhibitory activity (NCI) GI50
UO-31 = experiment: NCI 60 panel, Renal Cancer UO-31; type: cell-based; settings: Homo sapiens, read-out: Tumor cell inhibitory activity (NCI) GI50
[1] = test system: tubulin (colchicine site); experiment: inhibition of [3H]colchicine binding to tubulin; set-up: species or system bovine
DU-145 = experiment: NCI 60 panel, Prostate Cancer DU-145; type: cell-based; settings: Homo sapiens, read-out: Tumor cell inhibitory activity (NCI) GI50
K-562 = experiment: NCI 60 panel, Leukemia K-562; type: cell-based; settings: Homo sapiens, K562, read-out: Tumor cell inhibitory activity (NCI) GI50
KM12 = experiment: NCI 60 panel, Colon Cancer KM12; type: cell-based; settings: Homo sapiens, read-out: Tumor cell inhibitory activity (NCI) GI50
HCC-2998 = experiment: NCI 60 panel, Colon Cancer HCC-2998; type: cell-based; settings: Homo sapiens, read-out: Tumor cell inhibitory activity (NCI) GI50
LOX IMVI = experiment: NCI 60 panel, Melanoma LOX IMVI; type: cell-based; settings: Homo sapiens, read-out: Tumor cell inhibitory activity (NCI) GI50
OVCAR-3 = experiment: NCI 60 panel, Ovarian cancer OVCAR-3; type: cell-based; settings: Homo sapiens, read-out: Tumor cell inhibitory activity (NCI) GI50
COLO 205 = experiment: NCI 60 panel, Colon Cancer COLO 205; type: cell-based; settings: Homo sapiens, read-out: Tumor cell inhibitory activity (NCI) GI50
HOP-62 = experiment: NCI 60 panel, NSCLC HOP-62; type: cell-based; settings: Homo sapiens, read-out: Tumor cell inhibitory activity (NCI) GI50
HCT-116 = experiment: NCI 60 panel, Colon Cancer HCT-116; type: cell-based; settings: Homo sapiens, read-out: Tumor cell inhibitory activity (NCI) GI50
786-0 = experiment: NCI 60 panel, Renal Cancer 786-0; type: cell-based; settings: Homo sapiens, read-out: Tumor cell inhibitory activity (NCI) GI50
VEGFR2 = VEGFR2 (Homo sapiens, UniProt P35968); experiment: VEGFR2 kinase inhibition, whole-cell assay; type: cell-based; settings: read-out: kinase inhibition IC50 [whole-cell assays] VEGFR2
Chain of VEGFR2 (P35968 20-1356, species assumed): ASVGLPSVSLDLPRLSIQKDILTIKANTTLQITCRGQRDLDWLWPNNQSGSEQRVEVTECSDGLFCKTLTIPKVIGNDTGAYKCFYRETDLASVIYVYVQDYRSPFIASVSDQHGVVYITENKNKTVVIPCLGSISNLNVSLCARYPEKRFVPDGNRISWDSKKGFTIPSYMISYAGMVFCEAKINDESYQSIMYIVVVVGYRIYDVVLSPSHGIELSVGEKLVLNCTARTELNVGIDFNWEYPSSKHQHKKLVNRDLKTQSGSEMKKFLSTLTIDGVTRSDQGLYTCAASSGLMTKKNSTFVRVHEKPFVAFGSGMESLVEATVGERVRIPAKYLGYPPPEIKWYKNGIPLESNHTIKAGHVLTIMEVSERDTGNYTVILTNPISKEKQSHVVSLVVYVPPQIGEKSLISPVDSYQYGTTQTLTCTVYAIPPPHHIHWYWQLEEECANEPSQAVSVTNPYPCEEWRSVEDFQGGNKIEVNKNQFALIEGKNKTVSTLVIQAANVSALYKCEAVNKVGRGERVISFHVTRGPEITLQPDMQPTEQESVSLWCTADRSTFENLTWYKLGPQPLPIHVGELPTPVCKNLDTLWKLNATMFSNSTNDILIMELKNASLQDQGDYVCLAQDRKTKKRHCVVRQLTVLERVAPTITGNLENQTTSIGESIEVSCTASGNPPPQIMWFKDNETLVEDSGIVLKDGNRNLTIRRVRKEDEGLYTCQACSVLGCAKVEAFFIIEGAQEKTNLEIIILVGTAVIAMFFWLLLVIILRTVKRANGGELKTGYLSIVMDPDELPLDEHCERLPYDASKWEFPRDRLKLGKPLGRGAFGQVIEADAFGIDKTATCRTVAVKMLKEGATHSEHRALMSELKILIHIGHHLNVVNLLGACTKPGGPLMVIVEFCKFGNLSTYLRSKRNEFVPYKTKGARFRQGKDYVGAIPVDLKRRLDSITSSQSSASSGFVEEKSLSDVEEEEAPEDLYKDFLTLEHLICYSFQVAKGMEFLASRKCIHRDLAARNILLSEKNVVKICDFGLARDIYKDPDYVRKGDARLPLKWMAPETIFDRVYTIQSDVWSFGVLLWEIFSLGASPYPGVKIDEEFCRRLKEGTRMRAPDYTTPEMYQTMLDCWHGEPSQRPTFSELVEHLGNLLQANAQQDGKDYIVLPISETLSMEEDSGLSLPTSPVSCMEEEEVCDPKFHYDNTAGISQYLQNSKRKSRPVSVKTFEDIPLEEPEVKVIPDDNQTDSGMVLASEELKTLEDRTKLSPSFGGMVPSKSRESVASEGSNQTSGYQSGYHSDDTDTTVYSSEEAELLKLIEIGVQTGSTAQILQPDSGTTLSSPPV

SNB-75 = experiment: NCI 60 panel, CNS Cancer SNB-75; type: cell-based; settings: Homo sapiens, read-out: Tumor cell inhibitory activity (NCI) GI50
A549/ATCC = experiment: NCI 60 panel, NSCLC A549/ATCC; type: cell-based; settings: Homo sapiens, read-out: Tumor cell inhibitory activity (NCI) GI50
NCI-H460 = experiment: NCI 60 panel, NSCLC NCI-H460; type: cell-based; settings: Homo sapiens, read-out: Tumor cell inhibitory activity (NCI) GI50
MCF7 = experiment: NCI 60 panel, Breast Cancer MCF7; type: cell-based; settings: Homo sapiens, read-out: Tumor cell inhibitory activity (NCI) GI50
NCI-H23 = experiment: NCI 60 panel, NSCLC NCI-H23; type: cell-based; settings: Homo sapiens, read-out: Tumor cell inhibitory activity (NCI) GI50
[2] = test system: NCI 60 tumor cell line panel; experiment: NCI 60 tumor cell line panel, overall; type: cell-based
HS 578T = experiment: NCI 60 panel, Breast Cancer HS 578T; type: cell-based; settings: Homo sapiens, read-out: Tumor cell inhibitory activity (NCI) GI50
SF-295 = experiment: NCI 60 panel, CNS Cancer SF-295; type: cell-based; settings: Homo sapiens, read-out: Tumor cell inhibitory activity (NCI) GI50
HOP-92 = experiment: NCI 60 panel, NSCLC HOP-92; type: cell-based; settings: Homo sapiens, read-out: Tumor cell inhibitory activity (NCI) GI50
wild type HeLa cells = experiment: HeLa cytotoxicity, wild type; type: cell-based; settings: Homo sapiens
U251 = experiment: NCI 60 panel, CNS Cancer U251; type: cell-based; settings: Homo sapiens, U-251, read-out: Tumor cell inhibitory activity (NCI) GI50
OVCAR-8 = experiment: NCI 60 panel, Ovarian cancer OVCAR-8; type: cell-based; settings: Homo sapiens, read-out: Tumor cell inhibitory activity (NCI) GI50
SF-539 = experiment: NCI 60 panel, CNS Cancer SF-539; type: cell-based; settings: Homo sapiens, read-out: Tumor cell inhibitory activity (NCI) GI50
SK-MEL-2 = experiment: NCI 60 panel, Melanoma SK-MEL-2; type: cell-based; settings: Homo sapiens, read-out: Tumor cell inhibitory activity (NCI) GI50
SK-MEL-5 = experiment: NCI 60 panel, Melanoma SK-MEL-5; type: cell-based; settings: Homo sapiens, read-out: Tumor cell inhibitory activity (NCI) GI50
RXF 393 = experiment: NCI 60 panel, Renal Cancer RXF 393; type: cell-based; settings: Homo sapiens, read-out: Tumor cell inhibitory activity (NCI) GI50
HCT-15 = experiment: NCI 60 panel, Colon Cancer HCT-15; type: cell-based; settings: Homo sapiens, read-out: Tumor cell inhibitory activity (NCI) GI50
CAKI-1 = experiment: NCI 60 panel, Renal Cancer CAKI-1; type: cell-based; settings: Homo sapiens, read-out: Tumor cell inhibitory activity (NCI) GI50
SF-268 = experiment: NCI 60 panel, CNS Cancer SF-268; type: cell-based; settings: Homo sapiens, read-out: Tumor cell inhibitory activity (NCI) GI50
NCI-H522 = experiment: NCI 60 panel, NSCLC NCI-H522; type: cell-based; settings: Homo sapiens, read-out: Tumor cell inhibitory activity (NCI) GI50
BT-549 = experiment: NCI 60 panel, Breast Cancer BT-549; type: cell-based; settings: Homo sapiens, read-out: Tumor cell inhibitory activity (NCI) GI50
SK-OV-3 = experiment: NCI 60 panel, Ovarian cancer SK-OV-3; type: cell-based; settings: Homo sapiens, read-out: Tumor cell inhibitory activity (NCI) GI50
A431 cells = experiment: A431 cytotoxicity; type: cell-based; settings: Homo sapiens, A-431
SNB-19 = experiment: NCI 60 panel, CNS Cancer SNB-19; type: cell-based; settings: Homo sapiens, read-out: Tumor cell inhibitory activity (NCI) GI50
[3] = test system: blood vessel formation in the chicken chorioallantoic membrane (CAM); experiment: chicken chorioallantoic membrane (CAM) antiangiogenic activity assay; type: in vivo; settings: Gallus gallus
[4] = compared with combretastatin A-4

## COc1ccc(N(C)c2nc(C)nc3c(Cc4ccccc4)cn(C)c23)cc1 [Compound 4, 7-Benzyl-N-(4-methoxyphenyl)-N,2,5-trimethyl-5H-pyrrolo[3,2-d]pyrimidin-4-amine]
SN12C
  GI50: 88.7 nM
M14
  GI50: 29.5 nM
A498
  GI50: 20.2 nM
Bovine brain tubulin; bovine tubulin
  IC50: 480 ± 8 nM
Bovine brain tubulin; [4]
  inhibition of bovine tubulin assembly, in words: effective and potent inhibitors
NCI-H226
  GI50: 304 nM
UACC-62
  GI50: 475 nM
MDA-MB-435
  GI50: 21.4 nM
IGROVI
  GI50: 95.8 nM
PC-3
  GI50: 49.6 nM
MOLT-4
  GI50: 50.8 nM
UACC-257
  GI50: 78.2 nM
HT29
  GI50: 35.1 nM
SK-MEL-28
  GI50: 48.7 nM
UO-31
  GI50: 209 nM
[1]; 1 μM inhibitor, [3H]colchicine, in % (unit assumed)
  inhibition of colchicine binding (1 μM inhibitor): 73 ± 3
[1]; 5 μM inhibitor, [3H]colchicine, in % (unit assumed)
  inhibition of colchicine binding (5 μM inhibitor): 92 ± 0.2
[1]; [4]
  inhibition of [3H]colchicine binding to tubulin, in words: potent inhibitors
DU-145
  GI50: 44.4 nM
K-562
  GI50: 33.7 nM
KM12
  GI50: 44.5 nM
HCC-2998
  GI50: 71.1 nM
LOX IMVI
  GI50: 58.8 nM
OVCAR-3
  GI50: 35.2 nM
COLO 205
  GI50: 26.3 nM
HOP-62
  GI50: 47.8 nM
HCT-116
  GI50: 35 nM
786-0
  GI50: 93.2 nM
VEGFR2
  IC50: 33 nM
SNB-75
  GI50: 27.8 nM
A549/ATCC
  GI50: 44 nM
NCI-H460
  GI50: 38.7 nM
MCF7
  GI50: 33.3 nM
NCI-H23
  GI50: 45.8 nM
[2]
  GI50 across the NCI 60 tumor cell line panel, in words: 2- to 3-digit nanomolar
HS 578T
  GI50: 62.3 nM
SF-295
  GI50: 30.4 nM
HOP-92
  GI50: 47.1 nM
Wild type HeLa cells
  IC50: 14 ± 2 nM
U251
  GI50: 44.3 nM
OVCAR-8
  GI50: 49.1 nM
SF-539
  GI50: 25.4 nM
SK-MEL-2
  GI50: 28.6 nM
SK-MEL-5
  GI50: 54.2 nM
RXF 393
  GI50: 25.4 nM
HCT-15
  GI50: 38.1 nM
CAKI-1
  GI50: 56.6 nM
SF-268
  GI50: 350 nM
NCI-H522
  GI50: 23.9 nM
BT-549
  GI50: 48.2 nM
SK-OV-3
  GI50: 45.4 nM
A431 cells
  IC50: 1.2 nM
SNB-19
  GI50: 54.7 nM
[3]
  IC50: 2200 ± 400 nM
